# How the values were obtained:
# [1] = molecular target: PRMT5/MEP50 protein complex (Homo sapiens (Human), UniProt O14744); experiment: PRMT5 biochemical assay (3H-SAM methylation of H4(1-21) peptide, filter plate scintillation counting); conditions: PRMT5 enzyme inhibition; 10 nM PRMT5/MEP50 complex, 200 nM H4(1-21) peptide, 1 uM SAM, 25 minute incubation at room temperature
# In short: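 Flag-PRMT5/MEP50 was co-expressed in Sf21 cells and Flag-affinity purified. Reactions used 10 nM complex, 200 nM H4(1-21) peptide and 1 uM 3H-SAM (final) in 50 mM Tris pH 8.5, 50 mM NaCl, 5 mM MgCl2, 1 mM EDTA and 1 mM TCEP, run 25 min at room temperature. Reactions were TCA-stopped, filter-captured and scintillation-counted; IC50 came from a 4-parameter fit.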
# [2] = tested on: A549 lung adenocarcinoma cells; experiment: A549 proliferation assay (Cell Titer Glo, 7 days); assay type: cell-based; conditions: Homo sapiens, 168 h, 7 days with compound, cell viability by Cell Titer Glo (ATP)
# Description: A549 lung adenocarcinoma cells (American Type CuIture Collection) were maintained in DMEM growth media (Life Technologies) supplemented with 10% v/v heat inactivated fetal bovine serum (Sigma) and cultured at 37° C., 5% CO2. Exponentially growing A549 cells were plated in 96-well black tissue culture treated plates (Corning) at a density of 2500 cells/ml in a volume of 100 μl culture media and allowed to adhere overnight at 37° C., 5% CO2. The following day, compound plates were prepared by making nine-point 3.3-fold dilutions in DMSO with a top concentration of 10 mM. Compounds were further diluted in culture media and 11 μl was added to the cells (final top assay concentration was 10 μM and DMSO was […]). Cells were incubated with compound at 37° C., 5% CO2 for 7 days with media and compound replacement on day 4. Cell viability was assayed on Day 7 by adding 100 μl Cell Titer Glo (Promega) reagent to the plate to measure the amount of ATP present in the cells. Luminescence was read using the Envision 2104 Multilabel Reader (Perkin Elmer).
# Results for the A549 proliferation assay of examples are summarized in Table 2, shown as IC50 values in μM.
# PRMT5/MEP50 protein complex, sequence (O14744 other isoform, or with tags, fused parts or gaps): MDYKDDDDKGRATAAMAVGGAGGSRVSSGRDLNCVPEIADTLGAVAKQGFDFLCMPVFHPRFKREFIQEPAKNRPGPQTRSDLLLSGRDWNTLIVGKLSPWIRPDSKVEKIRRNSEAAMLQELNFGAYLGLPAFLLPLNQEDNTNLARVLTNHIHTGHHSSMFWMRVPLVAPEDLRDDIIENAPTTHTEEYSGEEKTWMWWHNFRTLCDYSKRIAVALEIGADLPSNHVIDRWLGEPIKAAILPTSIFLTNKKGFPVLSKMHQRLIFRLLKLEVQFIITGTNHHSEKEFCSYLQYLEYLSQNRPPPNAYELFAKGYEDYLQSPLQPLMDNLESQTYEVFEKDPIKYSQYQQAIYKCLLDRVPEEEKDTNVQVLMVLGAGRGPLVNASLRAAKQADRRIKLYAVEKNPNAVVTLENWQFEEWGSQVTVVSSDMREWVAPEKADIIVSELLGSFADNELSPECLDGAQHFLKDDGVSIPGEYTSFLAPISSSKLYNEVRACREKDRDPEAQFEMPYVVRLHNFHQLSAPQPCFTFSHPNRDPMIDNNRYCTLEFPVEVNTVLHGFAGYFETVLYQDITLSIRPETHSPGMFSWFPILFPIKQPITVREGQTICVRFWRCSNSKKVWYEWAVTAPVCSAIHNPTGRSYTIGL
# PRMT5/MEP50 protein complex, sequence (Q9BQA1 whole entry partner): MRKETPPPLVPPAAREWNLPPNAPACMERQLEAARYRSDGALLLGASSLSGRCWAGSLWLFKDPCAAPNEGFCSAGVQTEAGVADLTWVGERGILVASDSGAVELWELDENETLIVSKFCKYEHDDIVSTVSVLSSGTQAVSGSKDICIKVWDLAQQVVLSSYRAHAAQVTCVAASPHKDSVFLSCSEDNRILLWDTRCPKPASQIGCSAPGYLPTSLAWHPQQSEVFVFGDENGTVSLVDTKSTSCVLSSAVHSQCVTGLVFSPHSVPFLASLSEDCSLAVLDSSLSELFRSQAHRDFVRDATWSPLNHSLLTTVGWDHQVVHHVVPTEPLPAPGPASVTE
SMILES,IC50 [1] [µM],IC50 [2] [µM]
"Cc1ncnc2c1ccn2[C@@H]1O[C@H]([C@H](O)c2cccc3c2CNCC3)[C@@H](O)[C@H]1O [Example 112, (2R,3S,4R,5R)-2-((R)-hydroxy(1,2,3,4-tetrahydroisoquinolin-8-yl)methyl)-5-(4-methyl-7H-pyrrolo[2,3-d]pyrimidin-7-yl)tetrahydrofuran-3,4-diol]",0.001,0.35
"COc1cc([C@@H](O)[C@H]2O[C@@H](n3ccc4c(C)ncnc43)[C@H](O)[C@@H]2O)ccc1F [Example 12, (2R,3S,4R,5R)-2-((R)-(4-fluoro-3-methoxyphenyl)(hydroxy)methyl)-5-(4-methyl-7H-pyrrolo[2,3-d]pyrimidin-7-yl)tetrahydrofuran-3,4-diol]",0.012,0.1
"Cc1ncnc2c1ccn2[C@@H]1O[C@H]([C@@H](O)c2ccccc2)[C@@H](O)[C@H]1O [Example 27, (2R,3S,4R,5R)-2-((S)-hydroxy(phenyl)methyl)-5-(4-methyl-7H-pyrrolo[2,3-d]pyrimidin-7-yl)tetrahydrofuran-3,4-diol]",5.17,8.7
"Cc1ncnc2c1ccn2[C@@H]1O[C@H]([C@H](O)c2cccc(Cl)c2)[C@@H](O)[C@H]1O [Example 32, (2R,3S,4R,5R)-2-((R)-(3-chlorophenyl)(hydroxy)methyl)-5-(4-methyl-7H-pyrrolo[2,3-d]pyrimidin-7-yl)tetrahydrofuran-3,4-diol]",0.005,0.025
"Cc1ncnc2c1ccn2[C@@H]1O[C@H]([C@H](O)c2cccc(F)c2)[C@@H](O)[C@H]1O [Example 34, (2R,3S,4R,5R)-2-((R)-(3-fluorophenyl)(hydroxy)methyl)-5-(4-methyl-7H-pyrrolo[2,3-d]pyrimidin-7-yl)tetrahydrofuran-3,4-diol]",0.006,0.026
"Cc1cc([C@@H](O)[C@H]2O[C@@H](n3ccc4c(C)ncnc43)[C@H](O)[C@@H]2O)ccc1F [Example 10, (2R,3S,4R,5R)-2-((R)-(4-fluoro-3-methylphenyl)(hydroxy)methyl)-5-(4-methyl-7H-pyrrolo[2,3-d]pyrimidin-7-yl)tetrahydrofuran-3,4-diol]",0.007,0.043
"Cc1ncnc2c1ccn2[C@@H]1O[C@H]([C@H](O)c2ccc(F)c(Cl)c2)[C@@H](O)[C@H]1O [Example 11, (2R,3S,4R,5R)-2-((R)-(3-chloro-4-fluorophenyl)(hydroxy)methyl)-5-(4-methyl-7H-pyrrolo[2,3-d]pyrimidin-7-yl)tetrahydrofuran-3,4-diol]",0.003,0.015
"Cc1ncnc2c1ccn2[C@@H]1O[C@H]([C@@H](O)c2cc(F)cc(F)c2)[C@@H](O)[C@H]1O [Example 37, (2R,3S,4R,5R)-2-((S)-(3,5-difluorophenyl)(hydroxy)methyl)-5-(4-methyl-7H-pyrrolo[2,3-d]pyrimidin-7-yl)tetrahydrofuran-3,4-diol]",2.64,3
"Cc1ncnc2c1ccn2[C@@H]1O[C@H]([C@H](O)c2ccc(F)c(F)c2)[C@@H](O)[C@H]1O [Example 9, (2R,3S,4R,5R)-2-((R)-(3,4-difluorophenyl)(hydroxy)methyl)-5-(4-methyl-7H-pyrrolo[2,3-d]pyrimidin-7-yl)tetrahydrofuran-3,4-diol]",,0.016
"Cc1ncnc2c1ccn2[C@@H]1O[C@H]([C@@H](O)c2cccc(Cl)c2)[C@@H](O)[C@H]1O [Example 33, (2R,3S,4R,5R)-2-((S)-(3-chlorophenyl)(hydroxy)methyl)-5-(4-methyl-7H-pyrrolo[2,3-d]pyrimidin-7-yl)tetrahydrofuran-3,4-diol]",2.64,4.4

# Second part, the compound after the results:
IC50 [1] [µM],IC50 [2] [µM],SMILES
0.002,0.046,"O[C@@H]1[C@H](O)[C@@H]([C@H](O)c2ccc(Cl)c(F)c2)O[C@H]1n1ccc2cncnc21 [Example 115, (2R,3S,4R,5R)-2-((R)-(4-chloro-3-fluorophenyl)(hydroxy)methyl)-5-(7H-pyrrolo[2,3-d]pyrimidin-7-yl)tetrahydrofuran-3,4-diol]"
0.038,3.4,"CCC[C@@H](O)[C@H]1O[C@@H](n2ccc3c(C)nc(N)nc32)[C@H](O)[C@@H]1O [Example 63, (2R,3R,4S,5R)-2-(2-amino-4-methyl-7H-pyrrolo[2,3-d]pyrimidin-7-yl)-5-((R)-1-hydroxybutyl)tetrahydrofuran-3,4-diol]"
1.55,10.5,"Cc1ncnc2c1ccn2[C@@H]1O[C@H]([C@@H](O)c2ccc(F)cc2)[C@@H](O)[C@H]1O [Example 39, (2R,3S,4R,5R)-2-((S)-(4-fluorophenyl)(hydroxy)methyl)-5-(4-methyl-7H-pyrrolo[2,3-d]pyrimidin-7-yl)tetrahydrofuran-3,4-diol]"
0.052,2.3,"CC[C@@H](O)[C@H]1O[C@@H](n2ccc3c(C)nc(N)nc32)[C@H](O)[C@@H]1O [Example 62, (2R,3R,4S,5R)-2-(2-amino-4-methyl-7H-pyrrolo[2,3-d]pyrimidin-7-yl)-5-((R)-1-hydroxypropyl)tetrahydrofuran-3,4-diol]"
0.003,0.014,"Nc1ncnc2c1c(F)cn2[C@@H]1O[C@H]([C@H](O)c2ccc(F)cc2)[C@@H](O)[C@H]1O [Example 61, (2R,3R,4S,5R)-2-(4-amino-5-fluoro-7H-pyrrolo[2,3-d]pyrimidin-7-yl)-5-((R)-(4-fluorophenyl)(hydroxy)methyl)tetrahydrofuran-3,4-diol]"
,1.79,"Cc1ncnc2c1ccn2[C@@H]1O[C@H]([C@H](N)c2ccc(F)c(F)c2)[C@@H](O)[C@H]1O [Example 94, (2R,3S,4R,5R)-2-((R)-amino(3,4-difluorophenyl)methyl)-5-(4-methyl-7H-pyrrolo[2,3-d]pyrimidin-7-yl)tetrahydrofuran-3,4-diol]"
,0.048,"Nc1ncnc2c1ncn2[C@@H]1O[C@H]([C@H](O)c2ccc(F)c(F)c2)[C@@H](O)[C@H]1O [Example 84, (2R,3R,4S,5R)-2-(6-amino-9H-purin-9-yl)-5-((R)-(3,4-difluorophenyl)(hydroxy)methyl)tetrahydrofuran-3,4-diol]"
0.021,0.364,"Cc1nc(C)c2ccn([C@@H]3O[C@H]([C@H](O)c4ccc(F)cc4)[C@@H](O)[C@H]3O)c2n1 [Example 99, (2R,3R,4S,5R)-2-(2,4-dimethyl-7H-pyrrolo[2,3-d]pyrimidin-7-yl)-5-((R)-(4-fluorophenyl)(hydroxy)methyl)tetrahydrofuran-3,4-diol]"
0.001,0.005,"Nc1ncnc2c1ccn2[C@@H]1O[C@H]([C@H](O)c2ccc(Cl)cc2)[C@@H](O)[C@H]1O [Example 87, (2R,3R,4S,5R)-2-(4-amino-7H-pyrrolo[2,3-d]pyrimidin-7-yl)-5-((R)-(4-chlorophenyl)(hydroxy)methyl)tetrahydrofuran-3,4-diol]"
0.012,0.148,"Cc1cc(C(O)[C@H]2O[C@@H](n3ccc4c(C)ncnc43)[C@H](O)[C@@H]2O)ccn1 (stereo in doubt) [Example 111, (2R,3S,4R,5R)-2-((R)-hydroxy(2-methylpyridin-4-yl)methyl)-5-(4-methyl-7H-pyrrolo[2,3-d]pyrimidin-7-yl)tetrahydrofuran-3,4-diol]"
0.002,0.01,"Nc1ncnc2c1c(F)cn2[C@@H]1O[C@H]([C@H](O)c2ccc(F)c(F)c2)[C@@H](O)[C@H]1O [Example 60, (2R,3R,4S,5R)-2-(4-amino-5-fluoro-7H-pyrrolo[2,3-d]pyrimidin-7-yl)-5-((R)-(3,4-difluorophenyl)(hydroxy)methyl)tetrahydrofuran-3,4-diol]"
0.002,0.009,"Nc1ncnc2c1ccn2[C@@H]1O[C@H]([C@H](O)c2ccc(F)cc2)[C@@H](O)[C@H]1O [Example 86, (2R,3R,4S,5R)-2-(4-amino-7H-pyrrolo[2,3-d]pyrimidin-7-yl)-5-((R)-(4-fluorophenyl)(hydroxy)methyl)tetrahydrofuran-3,4-diol]"
0.024,1.73,"Cc1ccc(C(O)[C@H]2O[C@@H](n3ccc4c(C)ncnc43)[C@H](O)[C@@H]2O)cn1 (stereo in doubt) [Example 110, (2R,3S,4R,5R)-2-((R)-hydroxy(6-methylpyridin-3-yl)methyl)-5-(4-methyl-7H-pyrrolo[2,3-d]pyrimidin-7-yl)tetrahydrofuran-3,4-diol]"
0.001,0.006,"Nc1ncnc2c1ccn2[C@@H]1O[C@H]([C@H](O)c2ccc(F)c(F)c2)[C@@H](O)[C@H]1O [Example 85, (2R,3R,4S,5R)-2-(4-amino-7H-pyrrolo[2,3-d]pyrimidin-7-yl)-5-((R)-(3,4-difluorophenyl)(hydroxy)methyl)tetrahydrofuran-3,4-diol]"
,3.2,"Cc1ncnc2c1ccn2[C@@H]1O[C@H]([C@H](O)c2cnn(C)c2)[C@@H](O)[C@H]1O [Example 50, (2R,3S,4R,5R)-2-((R)-hydroxy(1-methyl-1H-pyrazol-4-yl)methyl)-5-(4-methyl-7H-pyrrolo[2,3-d]pyrimidin-7-yl)tetrahydrofuran-3,4-diol]"

# — patent US10428104B2, “Substituted nucleoside derivatives useful as anticancer agents” (Pfizer Inc., priority 2015, dated 2019)
